This is an account of results in US20230014137A1, “COMPOUND HAVING LYSOPHOSPHATIDIC ACID RECEPTOR AGONIST ACTIVITY AND PHARMACEUTICAL USE THEREOF” (ONO PHARMACEUTICAL CO., LTD., priority 2019, published 2023).

In general, EC50 refers to the concentration giving half of the maximal effect. Higher therefore signals weaker potency.

SMILES strings stand for the structures.

One experiment addresses T1, human LPA3 receptor (Homo sapiens, UniProt Q9UBY5).
T1 construct: expressed in transfected cells; host or cells: CHO cells (Chinese hamster ovary) with the LPA1 receptor knocked down
T1 sequence (Q9UBY5 1-353): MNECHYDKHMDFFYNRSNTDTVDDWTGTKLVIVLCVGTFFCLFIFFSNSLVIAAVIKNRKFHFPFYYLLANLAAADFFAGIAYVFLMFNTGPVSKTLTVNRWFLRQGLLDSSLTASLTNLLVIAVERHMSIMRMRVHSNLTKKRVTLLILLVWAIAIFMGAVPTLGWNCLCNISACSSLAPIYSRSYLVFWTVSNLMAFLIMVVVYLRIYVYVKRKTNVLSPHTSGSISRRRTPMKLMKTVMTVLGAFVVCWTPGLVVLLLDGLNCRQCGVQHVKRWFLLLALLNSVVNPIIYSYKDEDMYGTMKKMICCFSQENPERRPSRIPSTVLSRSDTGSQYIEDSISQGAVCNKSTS
Kind of experiment: LPA3 agonist activity measurement (Method B): intracellular Ca2+ in LPA1-knockdown CHO cells stably expressing human LPA3 receptor. The format is cell-based. As to conditions: LPA1-knockdown CHO cells expressing human LPA3, Ca2+ fluorescence. An excerpt: (Method B) A cell line stably expressing a human LPA3 receptor using a cell obtained by knocking down an LPA1 receptor of CHO cells of Chinese hamster ovary as a host was subjected to an experiment. The cryopreserved cells were thawed and suspended in loading buffer (Hank's Balanced Salt Solution containing 0.02 mol/L HEPES, 2.5 mmol/L probenecid, 0.1% BSA, 5 μmol/L Fluo-4, Quenching Buffer, Pluronic F-127) so as to be 1×10^5 cells/mL. The plate was allowed to stand under conditions of 5% CO2 and 37° C. for 1 hour, then the buffer was replaced with an assay buffer (Hank's Balanced Salt Solution containing 0.02 mol/L HEPES, 2.5 mmol/L probenecid, 0.1% BSA), and the cells were seeded in a 384 well optical bottom plate (384 Well microplate, low volume, Corning, 3540) at 10 μL/well.
A plate was set in a fluorescent drug screening system (Hamamatsu Photonics K.K.), and after 15 seconds from the start of the measurement, 10 μL of a positive control, the test substance or the cell-added solution containing only DMSO was added thereto, and the measurement was performed for 1 minute. A fluorescence wavelength of 540 nm at an excitation wavelength of 480 nm was measured, and intracellular […] concentration was indicated by fluorescence intensity change.
Agonist action of the test substance was calculated as a ratio increase degree after addition of the test substance when a ratio increase value indicated by the positive control or the cell-added solution containing was added was set to 100%. Further, EC50 value was calculated as a 50% action concentration using Microsoft Excel, from an activity (%) at concentrations before and after agonist activity exceeds 50%.
With `O=C(O)c1c(CNC2CCC2)c2ccccc2n1CC1CC1(F)F` (centres unmarked) [Example 1(3), 3-[(Cyclobutylamino)methyl]-1-[(2,2-difluorocyclopropyl)methyl]-1H-indole-2-carboxylic acid], the EC50 was found to be 200 nM.
In the case of `CCn1c(C(=O)O)c(CNC2CCC2)c2ccccc21` [Example 1(4), 3-[(Cyclobutylamino)methyl]-1-ethyl-1H-indole-2-carboxylic acid], the midpoint of the response, the EC50, lay at 600 nM.
In the case of `O=C(O)c1c(CNC2CCC2)c2ccccc2n1Cc1ccccc1Cl` [Example 2(6), 1-(2-Chlorobenzyl)-3-[(cyclobutylamino)methyl]-1H-indole-2-carboxylic acid], the EC50 amounted to 50 nM.
Consider `O=C(O)c1c(CNC2CCC2)c2ccccc2n1Cc1cccc(C2CC2)c1` [Example 2(41), 3-[(Cyclobutylamino)methyl]-1-(3-cyclopropylbenzyl)-1H-indole-2-carboxylic acid], for which a half-maximal response (EC50) required 40 nM.
On to `Cc1ccc(Cn2c(C(=O)O)c(CNC3CCC3C)c3ccccc32)cc1` (centres unmarked) [Example 2(46)], for which the EC50 turned out to be 100 nM.
Molecule `Cc1ccc(Cn2c(C(=O)O)c(CNC3CCC3)c3cccnc32)cc1` [Example 2(49), 3-[(Cyclobutylamino)methyl]-1-(4-methylbenzyl)-1H-pyrrolo[2,3-b]pyridine-2-carboxylic acid] showed an EC50 of 100 nM.
In the case of `O=C(O)c1c(CNC2CCC2)c2ccccc2n1Cc1ccccc1OC(F)F` [Example 2(53), 3-[(Cyclobutylamino)methyl]-1-[2-(difluoromethoxy)benzyl]-1H-indole-2-carboxylic acid], the response was half-maximal at 100 nM (EC50).
Same read-out and setting: under `O=C(O)c1c(CNC2CCCC2)c2ccccc2n1Cc1ccccc1Cl` [Example 2(70), 1-(2-Chlorobenzyl)-3-[(cyclopentylamino)methyl]-1H-indole-2-carboxylic acid] stands 200 nM; under `Cc1ccc(Cn2c(C(=O)O)c(CNC3CSC3)c3ccccc32)cc1` [Example 2(71), 1-(4-Methylbenzyl)-3-[(3-thiethanylamino)methyl]-1H-indole-2-carboxylic acid], 60 nM; under `O=C(O)c1c(CNC2CC2)c2ccccc2n1Cc1ccccc1Cl` [Example 2(72), 1-(2-Chlorobenzyl)-3-[(cyclopropylamino)methyl]-1H-indole-2-carboxylic acid], 100 nM.
In turn, `O=C(O)c1c(CNC2CCC2)c2ccccc2n1Cc1cccs1` [Example 2(74), 3-[(Cyclobutylamino)methyl]-1-(2-thienylmethyl)-1H-indole-2-carboxylic acid] returned an EC50 of 30 nM.
On the same count and under the same terms, under `CSc1ccccc1Cn1c(C(=O)O)c(CNC2CCC2)c2ccccc21` [Example 2(75), 3-[(Cyclobutylamino)methyl]-1-[2-(methylthio)benzyl]-1H-indole-2-carboxylic acid] stands 60 nM; under `Cc1ccc(Cn2c(C(=O)O)c(CNC3CCC3)c3cccc(C#N)c32)cc1` [Example 9(1), 7-Cyano-3-[(cyclobutylamino)methyl]-1-(4-methylbenzyl)-1H-indole-2-carboxylic acid], 200 nM.
`Cc1ccc(Cn2c(C(=O)NS(C)(=O)=O)c(CNC3CCC3)c3ccccc32)cc1` [Example 19, 3-[(Cyclobutylamino)methyl]-1-(4-methylbenzyl)-N-(methylsulfonyl)-1H-indole-2-carboxamide] yielded a 50% effective concentration (EC50) of 60 nM.

For another experiment, the target named is T1, human LPA3 receptor. Kind of experiment: LPA3 agonist activity measurement (Method A): intracellular Ca2+ in RH7777 cells stably expressing human LPA3 receptor. The format is cell-based. The settings on record: RH7777 cells expressing human LPA3, Ca2+ fluorescence. The method, then: (Method A) Using RH7777 cells derived from rat hepatocellular carcinoma as a host, each cell line (Multispan, Inc., Cat No. C1048-6, C1050-6, and C1053-6) stably expressing a human LPA3 receptor was subjected to an experiment. The cells cultured until reaching subconfluence were detached, and suspended in a medium (DMEM containing 10% FBS, 1% penicillin/streptomycin, 30 μg/mL puromycin) so as to be 4×10^5 cells/mL. The cells were seeded in a 96 well optical bottom plate (Asahi Techno Glass, MT4940-010) at 100 μL/well, and cultured under conditions of 5% CO2 and 37° C. for 1 day.
On the day of measurement, the medium was removed, and a medium containing 0.2% FBS was added at 100 μL/well, and cultured for 4 to 6 hours. Thereafter, the medium was removed, and an assay buffer (Hank's Balanced Salt Solution containing 0.02 mol/L HEPES, 2.5 mmol/L probenecid, 0.1% BSA, 5 μmol/L Fluo-4, Quenching Buffer, Pluronic F-127) was added at 100 μL/well, and the cells were incubated with 5% CO2 at 37° C. for about 1 hour. The plate was set in a fluorescent drug screening system (Hamamatsu Photonics K.K.), and after 30 seconds from the start of measurement, 25 μL of a cell-added solution containing only a test substance or dimethyl sulfoxide (hereinafter, it is abbreviated as DMSO.) was added thereto. After 3 minutes, 25 μL of a ligand was further added thereto, and then measurement was performed for 4 minutes. A fluorescence wavelength of 540 nm at an excitation wavelength of 480 nm was measured, and intracellular Ca^2+ concentration was indicated by fluorescence intensity change.
Agonist action of the test substance was calculated as a ratio increase degree after addition of the test substance when a ratio increase value indicated by cells to which a cell-added solution containing only DMSO was added at the time of ligand addition was set to 100%. Further, EC50 value was calculated as a 50% action concentration using Microsoft Excel, from an activity (%) at concentrations before and after agonist activity exceeds 50%.
`O=C(O)c1c(CNC2CCC2)c2ccccc2n1CC1CC1(F)F` (centres unmarked) [Example 1(3), 3-[(Cyclobutylamino)methyl]-1-[(2,2-difluorocyclopropyl)methyl]-1H-indole-2-carboxylic acid] showed an EC50 of 500 nM.
The molecule `CCn1c(C(=O)O)c(CNC2CCC2)c2ccccc21` [Example 1(4), 3-[(Cyclobutylamino)methyl]-1-ethyl-1H-indole-2-carboxylic acid] gave an EC50 of 600 nM.
As to `Cc1ccc(Cn2c(C(=O)O)c(CNC3CC3)c3ccccc32)cc1` [Example 2(18), 3-[(Cyclopropylamino)methyl]-1-(4-methylbenzyl)-1H-indole-2-carboxylic acid], the EC50 is 1000 nM.
In the case of `Cc1ccc(Cn2c(Br)c(C)c(CNC3CCC3)c2C(=O)O)cc1` [Example 2(34), 5-Bromo-3-[(cyclobutylamino)methyl]-4-methyl-1-(4-methylbenzyl)-1H-pyrrole-2-carboxylic acid], the EC50 was 40 nM.
The molecule `Cc1ccc(Cn2c(C(=O)O)c(CNC3CCC3)c3ccccc32)cc1` [Example 2, 3-[(Cyclobutylamino)methyl]-1-(4-methylbenzyl)-1H-indole-2-carboxylic acid] returned an EC50 of 60 nM.
Regarding `Cc1ccc(Cn2c(C(=O)O)c(C(C)NC3CCC3)c3ccccc32)cc1` (centres unmarked) [Example 5, 3-[1-(Cyclobutylamino)ethyl]-1-(4-methylbenzyl)-1H-indole-2-carboxylic acid], the EC50 was found to be 100 nM.
Molecule `Cc1ccc(Cn2c(C)c(-c3cccc(F)c3)c(CNC3CCC3)c2C(=O)O)cc1` [Example 6(2), 3-[(Cyclobutylamino)methyl]-4-(3-fluorophenyl)-5-methyl-1-(4-methylbenzyl)-1H-pyrrole-2-carboxylic acid] displayed an EC50 of 900 nM.
Take `C=Cc1c(CNC2CCC2)c(C(=O)O)n(Cc2ccc(C)cc2)c1C` [Example 6(7), 3-[(Cyclobutylamino)methyl]-5-methyl-1-(4-methylbenzyl)-4-vinyl-1H-pyrrole-2-carboxylic acid]: the EC50 is 1000 nM.
For `Cc1ccc(Cn2c3c(c(CNC4CCC4)c2C(=O)O)CCCC3)cc1` [Example 7, 3-[(Cyclobutylamino)methyl]-1-(4-methylbenzyl)-4,5,6,7-tetrahydro-1H-indole-2-carboxylic acid], the EC50 is 100 nM.
